Source: US10570179B2, “Substituted urea depsipeptide analogs as activators of the CLPP endopeptidase” (priority 2016, dated 2020)
≈ marks a conversion by molar mass, not a printed value. Where two headings read alike, the source gives them in different places. Numbered stars: 1 amine (or outer) side, 2 acyl side, 3 side chain; on linkers, the order of the positions; unused ones are H or OH. Bridge positions count the residues as written; N and C are the ends. Square brackets hold non-standard residues; d marks the D form. Peptide text beside a SMILES is read from it. * marks the point of attachment. Phe(3-CF3) = N[C@@H](Cc1cccc(C(F)(F)F)c1)C(=O)O; Piperazine(2S-CO,4-Me) = CN1CCN[C@H](C(=O)O)C1; NH(1,3-benzodioxol-5-yl) = c1cc2c(cc1N*)OCO2; Phe(3-OMe) = COc1cccc(C[C@H](N)C(=O)O)c1; Phe(3-Me) = Cc1cccc(C[C@H](N)C(=O)O)c1; NH(4-Cl-2-F-phenyl) = Fc1cc(Cl)ccc1N*; Pro(4R-Me) = C[C@H]1CN[C@H](C(=O)O)C1; X1 = O=C([C@@H]1CSCCN1[*:1])[*:2]; NH(4-Et-phenyl) = CCc1ccc(N*)cc1; NH(4-Me-phenyl) = Cc1ccc(N*)cc1; aThr = C[C@H](O)[C@H](N)C(=O)O; Pip = O=C(O)[C@@H]1CCCCN1; CO = O=C([*:1])[*:2]; X2 = Fc1cc(N*)ccc1Cl

Legend:
Plasma pharmacokinetics = type: in vivo, male BALB/c mice; conditions: male, BALB/c, mouse, in vivo, iv; for Vd: 10 mg/kg, Route i.v., read-out: Vss
S. pyogenes = test: Minimal inhibitory concentration, microbroth dilution; type: cell-based; conditions: Streptococcus pyogenes, read-out: Minimal Inhibitory Concentrations (μM) S. pyogenes
In short: (§1)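 MICs were determined by CLSI broth microdilution, using two-fold compound dilutions from a final 200 μM and about 10^5 cfu/mL inoculum. Plates were incubated aerobically at 37 °C overnight. The MIC was read visually as the lowest concentration preventing growth.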

B. subtilis = test: as above; type: cell-based; conditions: Bacillus subtilis; MIC; read-out: Minimal Inhibitory Concentrations (μM) B. subtilis
In short: as §1

Plasma stability assay = type: in vitro ADME, human
In short: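 Compounds at 10 μM final in human or mouse plasma, incubated at 37 °C and sampled at 0, 3, 24 and 48 h in triplicate. Reactions quenched with cold acetonitrile containing warfarin internal standard; parent measured by LC-MS. Half-life from least-squares first-order fit.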

[1] = Plasma protein binding, rapid equilibrium dialysis; type: in vitro ADME, mouse
S. pneumoniae = test: Minimal inhibitory concentration, microbroth dilution; type: cell-based; conditions: Streptococcus pneumoniae, read-out: Minimal Inhibitory Concentrations (μM) S. pneumoniae
In short: as §1

SMILES	AUC(0-inf) (Plasma pharmacokinetics) [ng·h/mL]	AUC(0-t) (Plasma pharmacokinetics) [ng·h/mL]	C^0 (Plasma pharmacokinetics) [ng/mL]	clearance (Plasma pharmacokinetics) [mL/min/kg]	half-life (Plasma pharmacokinetics) [h]	Vd (Plasma pharmacokinetics) [L/kg]	MIC (S. pyogenes; MIC) [µM]	MIC (B. subtilis) [µM]	Human (hr) (Plasma stability assay; human, 10 μM)	Mouse ([1]; mouse, 4 h, 10 μM, pH 7.4) [%]	MIC (S. pneumoniae; MIC) [µM]	Human (Plasma stability assay; human, 10 μM) [h]	MIC (S. pyogenes) [µM]	MIC (S. pneumoniae) [µM]	Human (Plasma stability assay; plasma stability half-life, human plasma, 37° C.) [h]	Mouse ([1]; plasma binding, % Bound, mouse plasma) [%]
Cc1cccc(C[C@H](NC(=O)Nc2ccc(Cl)cc2F)C(=O)N[C@@H]2C(=O)N3CCC[C@H]3C(=O)N3CCCC[C@H]3C(=O)N[C@@H](C)C(=O)N3C[C@H](C)C[C@H]3C(=O)O[C@H]2C)c1 [Compound 3, (S)-2-(3-(4-CHLORO-2-FLUOROPHENYL)UREIDO)-3-(M-TOLYL)-N-((2R,6S,8AS,14AS,20S,21S,23AS)-2,6,21-TRIMETHYL-5,8,14,19,23-PENTAOXOOCTADECAHYDRO-1H,5H,14H,19H-PYRIDO[2,1-I]DIPYRROLO[2,1-C:2′,1′-L][1]OXA[4,7,10,13]TETRAAZACYCLOHEXADECIN-20-YL)PROPANAMIDE] ({NH(4-Cl-2-F-phenyl)-CO}-[Phe(3-Me)][aThr]P[Pip]A[Pro(4R-Me)]; ester 2-C)	12600	12500	13482.56	13.3	3.4	2.08	0.313 (≈ 0.258 µg/mL)	0.078 (≈ 0.0643 µg/mL)	>>48 hr	99.3 ± 0.1						
Cc1cccc(C[C@H](NC(=O)Nc2ccc(Cl)cc2F)C(=O)N[C@H]2COC(=O)[C@@H]3C[C@@H](C)CN3C(=O)[C@H](C)NC(=O)[C@@H]3CN(C)CCN3C(=O)[C@@H]3CCCN3C2=O)c1 [Compound 13, (S)-2-(3-(4-CHLORO-2-FLUOROPHENYL)UREIDO)-3-(M-TOLYL)-N-((6AS,12S,15AS,17R,21S,23AS)-2,17,21-TRIMETHYL-6,11,15,20,23-PENTAOXOOCTADECAHYDRO-2H,6H,11H,15H-PYRAZINO[2,1-I]DIPYRROLO[2,1-C:2′,1′-L][1]OXA[4,7,10,13]TETRAAZACYCLOHEXADECIN-12-YL)PROPANAMIDE] ({NH(4-Cl-2-F-phenyl)-CO}-[Phe(3-Me)]SP[Piperazine(2S-CO,4-Me)]A[Pro(4R-Me)]; ester 2-C)							0.313 (≈ 0.258 µg/mL)			97.5 ± 0.3	0.156 (≈ 0.129 µg/mL)	67.3 ± 13.7				
Cc1cccc(C[C@H](NC(=O)Nc2ccc(Cl)c(F)c2)C(=O)N[C@H]2COC(=O)[C@@H]3C[C@@H](C)CN3C(=O)[C@H](C)NC(=O)[C@@H]3CN(C)CCN3C(=O)[C@@H]3CCCN3C2=O)c1 [Compound 14, (S)-2-(3-(4-CHLORO-3-FLUOROPHENYL)UREIDO)-3-(M-TOLYL)-N-((6AS,12S,15AS,17R,21S,23AS)-2,17,21-TRIMETHYL-6,11,15,20,23-PENTAOXOOCTADECAHYDRO-2H,6H,11H,15H-PYRAZINO[2,1-I]DIPYRROLO[2,1-C:2′,1′-L][1]OXA[4,7,10,13]TETRAAZACYCLOHEXADECIN-12-YL)PROPANAMIDE] ({X2-CO}-[Phe(3-Me)]SP[Piperazine(2S-CO,4-Me)]A[Pro(4R-Me)]; ester 2-C)							1.25 (≈ 1.03 µg/mL)			98.9 ± 0.1	0.625 (≈ 0.516 µg/mL)	97.65 ± 17.0				
Cc1ccc(NC(=O)N[C@@H](Cc2cccc(C)c2)C(=O)N[C@H]2COC(=O)[C@@H]3C[C@@H](C)CN3C(=O)[C@H](C)NC(=O)[C@@H]3CN(C)CCN3C(=O)[C@@H]3CCCN3C2=O)cc1 [Compound 15, (S)-3-(M-TOLYL)-2-(3-(P-TOLYL)UREIDO)-N-((6AS,12S,15AS,17R,21S,23AS)-2,17,21-TRIMETHYL-6,11,15,20,23-PENTAOXOOCTADECAHYDRO-2H,6H,11H,15H-PYRAZINO[2,1-I]DIPYRROLO[2,1-C:2′,1′-L][1]OXA[4,7,10,13]TETRAAZACYCLOHEXADECIN-12-YL)PROPANAMIDE] ({NH(4-Me-phenyl)-CO}-[Phe(3-Me)]SP[Piperazine(2S-CO,4-Me)]A[Pro(4R-Me)]; ester 2-C)													0.313 (≈ 0.246 µg/mL)	0.313 (≈ 0.246 µg/mL)	>50	77.0 ± 6.1
CCc1ccc(NC(=O)N[C@@H](Cc2cccc(C)c2)C(=O)N[C@H]2COC(=O)[C@@H]3C[C@@H](C)CN3C(=O)[C@H](C)NC(=O)[C@@H]3CN(C)CCN3C(=O)[C@@H]3CCCN3C2=O)cc1 [Compound 16, (S)-2-(3-(4-ETHYLPHENYL)UREIDO)-3-(M-TOLYL)-N-((6AS,12S,15AS,17R,21S,23AS)-2,17,21-TRIMETHYL-6,11,15,20,23-PENTAOXOOCTADECAHYDRO-2H,6H,11H,15H-PYRAZINO[2,1-I]DIPYRROLO[2,1-C:2′,1′-L][1]OXA[4,7,10,13]TETRAAZACYCLOHEXADECIN-12-YL)PROPANAMIDE] ({NH(4-Et-phenyl)-CO}-[Phe(3-Me)]SP[Piperazine(2S-CO,4-Me)]A[Pro(4R-Me)]; ester 2-C)	3770	3760	18634.35	44.3	0.25	0.57	0.156 (≈ 0.125 µg/mL)			97.1 ± 0.1	0.078 (≈ 0.0625 µg/mL)	>50				
Cc1cccc(C[C@H](NC(=O)Nc2ccc3c(c2)OCO3)C(=O)N[C@H]2COC(=O)[C@@H]3C[C@@H](C)CN3C(=O)[C@H](C)NC(=O)[C@@H]3CN(C)CCN3C(=O)[C@@H]3CCCN3C2=O)c1 [Compound 17, (S)-2-(3-(BENZO[D][1,3]DIOXOL-5-YL)UREIDO)-3-(M-TOLYL)-N-((6AS,12S,15AS,17R,21S,23AS)-2,17,21-TRIMETHYL-6,11,15,20,23-PENTAOXOOCTADECAHYDRO-2H,6H,11H,15H-PYRAZINO[2,1-I]DIPYRROLO[2,1-C:2′,1′-L][1]OXA[4,7,10,13]TETRAAZACYCLOHEXADECIN-12-YL)PROPANAMIDE] ({NH(1,3-benzodioxol-5-yl)-CO}-[Phe(3-Me)]SP[Piperazine(2S-CO,4-Me)]A[Pro(4R-Me)]; ester 2-C)							1.25 (≈ 1.02 µg/mL)			88.4 ± 1.6	0.313 (≈ 0.256 µg/mL)	51.18 ± 6.0				
C[C@@H]1C[C@H]2C(=O)OC[C@H](NC(=O)[C@H](Cc3cccc(C(F)(F)F)c3)NC(=O)Nc3ccc(Cl)cc3F)C(=O)N3CCC[C@H]3C(=O)N3CCN(C)C[C@H]3C(=O)N[C@@H](C)C(=O)N2C1 [Compound 18, (S)-2-(3-(4-CHLORO-2-FLUOROPHENYL)UREIDO)-3-(3-(TRIFLUOROMETHYL)PHENYL)-N-((6AS,12S,15AS,17R,21S,23AS)-2,17,21-TRIMETHYL-6,11,15,20,23-PENTAOXOOCTADECAHYDRO-2H,6H,11H,15H-PYRAZINO[2,1-I]DIPYRROLO[2,1-C:2′,1′-L][1]OXA[4,7,10,13]TETRAAZACYCLOHEXADECIN-12-YL)PROPANAMIDE] ({NH(4-Cl-2-F-phenyl)-CO}-[Phe(3-CF3)]SP[Piperazine(2S-CO,4-Me)]A[Pro(4R-Me)]; ester 2-C)							0.625 (≈ 0.55 µg/mL)			99.2 ± 0.1	< 0.02	46.62				
COc1cccc(C[C@H](NC(=O)Nc2ccc(Cl)cc2F)C(=O)N[C@H]2COC(=O)[C@@H]3C[C@@H](C)CN3C(=O)[C@H](C)NC(=O)[C@@H]3CN(C)CCN3C(=O)[C@@H]3CCCN3C2=O)c1 [Compound 19, (S)-2-(3-(4-CHLORO-2-FLUOROPHENYL)UREIDO)-3-(3-METHOXYPHENYL)-N-((6AS,12S,15AS,17R,21S,23AS)-2,17,21-TRIMETHYL-6,11,15,20,23-PENTAOXOOCTADECAHYDRO-2H,6H,11H,15H-PYRAZINO[2,1-I]DIPYRROLO[2,1-C:2′,1′-L][1]OXA[4,7,10,13]TETRAAZACYCLOHEXADECIN-12-YL)PROPANAMIDE] ({NH(4-Cl-2-F-phenyl)-CO}-[Phe(3-OMe)]SP[Piperazine(2S-CO,4-Me)]A[Pro(4R-Me)]; ester 2-C)							10 (≈ 8.41 µg/mL)			98.3 ± 0.1	2.5 (≈ 2.1 µg/mL)	62.38				
Cc1cccc(C[C@H](NC(=O)Nc2ccc(Cl)cc2F)C(=O)N[C@@H]2C(=O)N3CCC[C@H]3C(=O)N3CCSC[C@H]3C(=O)N[C@@H](C)C(=O)N3C[C@H](C)C[C@H]3C(=O)O[C@H]2C)c1 [Compound 38, (S)-2-(3-(4-CHLORO-2-FLUOROPHENYL)UREIDO)-3-(M-TOLYL)-N-((6AS,12S,13S,15AS,17R,21S,23AR)-13,17,21-TRIMETHYL-6,11,15,20,23-PENTAOXOOCTADECAHYDRO-6H,11H,15H-DIPYRROLO[2,1-C:2′,1′-L][1,4]THIAZINO[3,4-I][1]OXA[4,7,10,13]TETRAAZACYCLOHEXADECIN-12-YL)PROPANAMIDE] ({NH(4-Cl-2-F-phenyl)-CO}-[Phe(3-Me)][aThr]P[X1]A[Pro(4R-Me)]; ester 2-C)	13300	13200	16999.46	12.6	3.11	1.77				96.0 ± 6.0		>50				
